According to US20040082635A1, “Fused cyclic compounds and medicinal use thereof” (priority 2001, published 2004):
Where a name gives a salt, the structure may show the parent alone. Read-outs that look alike come from different tables or passages of the source.

Target: T1, HCV polymerase (Hepatitis C virus genotype 1b, UniProt P26663)
T1 construct: a region encoding NS5B (591 amino acids; J Virol 1991 Mar, 65(3), 1105-13) was amplified by PCR; 6 His (N); made in house; host or cells: Escherichia coli
T1 sequence (P26663 2420-3010): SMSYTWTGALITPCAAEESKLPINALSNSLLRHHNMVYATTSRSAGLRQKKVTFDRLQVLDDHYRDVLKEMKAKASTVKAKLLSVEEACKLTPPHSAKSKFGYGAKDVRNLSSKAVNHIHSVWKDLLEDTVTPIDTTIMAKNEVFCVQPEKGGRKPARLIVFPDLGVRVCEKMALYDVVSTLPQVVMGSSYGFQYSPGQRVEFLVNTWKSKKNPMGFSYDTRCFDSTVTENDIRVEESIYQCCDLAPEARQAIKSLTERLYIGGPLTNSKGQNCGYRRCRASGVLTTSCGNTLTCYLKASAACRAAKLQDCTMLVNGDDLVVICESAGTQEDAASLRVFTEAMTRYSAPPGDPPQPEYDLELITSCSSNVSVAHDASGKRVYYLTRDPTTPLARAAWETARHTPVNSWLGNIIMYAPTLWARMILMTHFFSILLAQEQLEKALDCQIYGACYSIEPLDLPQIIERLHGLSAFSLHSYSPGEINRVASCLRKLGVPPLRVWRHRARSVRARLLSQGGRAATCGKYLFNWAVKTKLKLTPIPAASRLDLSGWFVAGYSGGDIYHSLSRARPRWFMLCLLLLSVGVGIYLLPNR
Assay: biochemical

[1] = read-out: HCV polymerase inhibitory activity IC50

Row | SMILES | IC50 [1] [nM] | IC50 (HCV polymerase inhibitory activity IC50) [nM]
1 | O=C(O)c1ccc2c(c1)nc(-c1ccc(OCc3cccc([N+](=O)[O-])c3-c3ccc(Cl)cc3)cc1)n2C1CCCCC1 [Example 208, 1-cyclohexyl-2-{4-[2-(4-chlorophenyl)-3-nitrobenzyloxy]phenyl}-benzimidazole-5-carboxylic acid] | 39 | –
2 | O=C(O)c1ccc2c(c1)nc(-c1ccc(OCc3cc(C(=O)N4CC[C@H](O)[C@H](O)C4)ccc3-c3ccc(Cl)cc3)cc1)n2C1CCCCC1 (stereo in doubt) [Example 348, 2-{4-[2-(4-chlorophenyl)-5-(3,4-dihydroxypiperidin-1-ylcarbonyl)benzyloxy]phenyl}-1-cyclohexylbenzimidazole-5-carboxylic acid hydrochloride] | 13 | –
3 | CNC(=O)c1ccc(-c2ccc(Cl)cc2)c(COc2ccc(-c3nc4cc(C(=O)OC)ccc4n3C3CCCCC3)c(F)c2)c1 [Example 314, methyl 2-{4-[2-(4-chlorophenyl)-5-(methylcarbamoyl)benzyloxy]-2-fluorophenyl}-1-cyclohexylbenzimidazole-5-carboxylate] | 97 | –
4 | O=C(O)c1ccc2c(c1)nc(-c1ccc(OCc3cc(Cl)ccc3-c3ccc(Cl)cc3)cc1F)n2C1CCCCC1 [Example 174, 2-{4-[3-chloro-6-(4-chlorophenyl)benzyloxy]-2-fluorophenyl}-1-cyclohexylbenzimidazole-5-carboxylic acid] | 30 | –
5 | Nc1ccc(-c2ccc(Cl)cc2)c(COc2ccc(-c3nc4cc(C(=O)O)ccc4n3C3CCCCC3)cc2)c1 [Example 308, 2-{4-[5-amino-2-(4-chlorophenyl)benzyloxy]phenyl}-1-cyclohexylbenzimidazole-5-carboxylic acid] | 23 | –
6 | CC(CO)NC(=O)c1ccc(-c2ccc(Cl)cc2)c(COc2ccc(-c3nc4cc(C(=O)O)ccc4n3C3CCCCC3)c(F)c2)c1 (centres unmarked) [Example 381, 2-{4-[2-(4-chlorophenyl)-5-{(1-hydroxypropan-2-yl)carbamoyl}-benzyloxy]-2-fluorophenyl}-1-cyclohexylbenzimidazole-5-carboxylic acid hydrochloride] | 11 | –
7 | O=C(O)c1ccc(C(Oc2ccc(-c3nc4cc(C(=O)O)ccc4n3C3CCCCC3)c(F)c2)c2ccc(F)cc2)cc1 (centres unmarked) [Example 327, 2-{4-[(4-fluorophenyl)(4-carboxyphenyl)methoxy]-2-fluorophenyl}-1-cyclohexylbenzimidazole-5-carboxylic acid] | 19 | –
8 | O=C(O)c1ccc2c(c1)nc(-c1ccc(Oc3ccccc3OCCc3ccccc3)cc1)n2C1CCCCC1 [Example 123, 1-cyclohexyl-2-[4-(2-phenethyloxyphenoxy)phenyl]benzimidazole-5-carboxylic acid] | 100 | –
9 | O=C(O)c1ccc2c(c1)nc(-c1ccc(OCc3cc(Cl)ccc3-c3cccs3)cc1)n2C1CCCCC1 [Example 168, 2-{4-[3-chloro-6-(2-thienyl)benzyloxy]phenyl}-1-cyclohexylbenzimidazole-5-carboxylic acid] | 78 | –
10 | O=C1CCN(C(=O)c2ccc(-c3ccc(Cl)cc3)c(COc3ccc(-c4nc5cc(C(=O)O)ccc5n4C4CCCCC4)cc3)c2)CC1 [Example 328, 2-{4-[2-(4-chlorophenyl)-5-(4-oxopiperidinocarbonyl)-benzyloxy]phenyl}-1-cyclohexylbenzimidazole-5-carboxylic acid hydrochloride] | – | 15
11 | O=C(O)c1ccc2c(c1)nc(-c1ccc(OCCOc3ccccc3)cc1)n2C1CCCCC1 [Example 96, 1-cyclohexyl-2-{4-[2-(phenoxy)ethoxy]phenyl}benzimidazole-5-carboxylic acid] | 250 | –
12 | CN(C)C(=O)c1ccc(-c2ccc(Cl)cc2)c(COc2ccc(-c3nc4cc(C(=O)O)ccc4n3C3CCCC3)cc2)c1 [Example 414, 2-{4-[2-(4-chlorophenyl)-5-(dimethylcarbamoyl)benzyloxy]phenyl}-1-cyclopentylbenzimidazole-5-carboxylic acid hydrochloride] | 24 | –
13 | O=C(O)c1ccc2c(c1)nc(-c1ccc(OCc3ccccc3)nc1)n2C1CCCCC1 [Example 100, 2-(2-benzyloxy-5-pyridyl)-1-cyclohexylbenzimidazole-5-carboxylic acid] | 780 | –
14 | O=C(O)c1ccc2c(c1)nc(-c1ccc(OCc3cc(OCCCO)ccc3-c3ccc(Cl)cc3)cc1)n2C1CCCCC1 [Example 334, 2-{4-[2-(4-chlorophenyl)-5-(3-hydroxypropyloxy)benzyloxy]phenyl}-1-cyclohexylbenzimidazole-5-carboxylic acid] | 16 | –
15 | O=C(O)c1ccc2c(c1)nc(-c1ccc(OCc3cc(C(=O)N4CCSCC4)ccc3-c3ccc(Cl)cc3)cc1F)n2C1CCCCC1 [Example 291, 2-{4-[2-(4-chlorophenyl)-5-thiomorpholinocarbonylbenzyloxy]-2-fluorophenyl}-1-cyclohexylbenzimidazole-5-carboxylic acid] | 16 | –
16 | CONC(=O)c1ccc(-c2ccc(Cl)cc2)c(COc2ccc(-c3nc4cc(C(=O)O)ccc4n3C3CCCCC3)c(F)c2)c1 [Example 382, 2-{4-[2-(4-chlorophenyl)-5-(methoxycarbamoyl)benzyloxy]-2-fluorophenyl}-1-cyclohexylbenzimidazole-5-carboxylic acid hydrochloride] | 15 | –

Row | SMILES | IC50 [1] [nM] | IC50 (HCV polymerase inhibitory activity IC50) [nM]
17 | O=C(O)c1ccc2c(c1)nc(-c1ccc(Oc3cccc(-c4cc(Cl)cc(Cl)c4)c3)cc1)n2C1CCCCC1 [Example 222, 1-cyclohexyl-2-{4-[3-(3,5-dichlorophenyl)phenoxy]phenyl}-benzimidazole-5-carboxylic acid] | 41 | –
18 | Cc1ccc(C(Oc2ccc(-c3nc4cc(C(=O)O)ccc4n3C3CCCCC3)cc2)c2ccc(C)cc2)cc1 [Example 133, 2-{4-[bis(4-methylphenyl)methoxy]phenyl}-1-cyclohexylbenzimidazole-5-carboxylic acid] | 120 | –
19 | CN(C)C(=O)c1ccc(-c2ccncc2)c(COc2ccc(-c3nc4cc(C(=O)O)ccc4n3C3CCCCC3)cc2)c1 [Example 320, 2-{4-[5-dimethylaminocarbonyl-2-(4-pyridyl)benzyloxy]phenyl}-1-cyclohexylbenzimidazole-5-carboxylic acid dihydrochloride] | 36 | –
20 | O=C(O)c1ccc2c(c1)nc(-c1ccc(OCc3ccc(Cl)c(Cl)c3)cc1)n2C1CCCC1 [Example 68, 1-cyclopentyl-2-[4-(3,4-dichlorobenzyloxy)phenyl]benzimidazole-5-carboxylic acid] | 280 | –
21 | Cc1noc(C)c1COc1ccc(-c2nc3cc(C(=O)O)ccc3n2C2CCCC2)cc1 [Example 51, 1-cyclopentyl-2-{4-[(3,5-dimethyl-4-isoxazolyl)methoxy]phenyl}-benzimidazole-5-carboxylic acid] | 1000 | –
22 | O=C(O)c1ccc2c(c1)nc(-c1ccc(Oc3cccc(OCCc4ccccc4)c3)cc1)n2C1CCCCC1 [Example 124, 1-cyclohexyl-2-[4-(3-phenethyloxyphenoxy)phenyl]benzimidazole-5-carboxylic acid] | 91 | –
23 | O=C(O)c1ccc2c(c1)nc(-c1ccc(OCc3ccccc3-c3ccc(C(F)(F)F)cc3)cc1F)n2C1CCCCC1 [Example 131, 1-cyclohexyl-2-{2-fluoro-4-[2-(4-trifluoromethylphenyl)-benzyloxy]phenyl}benzimidazole-5-carboxylic acid] | 46 | –
24 | COC(=O)c1ccc2c(c1)nc(-c1ccc(OCc3cc(C(=O)N(C)C)ccc3-c3ccc(Cl)cc3)cc1F)n2C1CCCCC1 [Example 303, methyl 2-{4-[2-(4-chlorophenyl)-5-(dimethylcarbamoyl)benzyloxy]-2-fluorophenyl}-1-cyclohexylbenzimidazole-5-carboxylate] | 100 | –
25 | O=C(O)c1ccc2c(c1)nc(-c1ccc(OCc3cc(-c4nnn[nH]4)ccc3-c3ccc(Cl)cc3)cc1)n2C1CCCCC1 [Example 367, 2-{4-[2-(4-chlorophenyl)-5-tetrazol-5-ylbenzyloxy]phenyl}-1-cyclohexylbenzimidazole-5-carboxylic acid hydrochloride] | 11 | –
26 | O=C(O)c1ccc2c(c1)nc(-c1ccc(OCc3cc(C(=O)N4CCOCC4)ccc3-c3ccc(Cl)cc3)cc1F)n2C1CCCCC1 [Example 290, 2-{4-[2-(4-chlorophenyl)-5-morpholinocarbonylbenzyloxy]-2-fluorophenyl}-1-cyclohexylbenzimidazole-5-carboxylic acid] | 12 | –
27 | O=C(O)c1ccc2c(c1)nc(-c1ccc(OCc3cc([N+](=O)[O-])ccc3-c3ccc(Cl)cc3)cc1)n2C1CCCCC1 [Example 182, 2-{4-[2-(4-chlorophenyl)-5-nitrobenzyloxy]phenyl}-1-cyclohexylbenzimidazole-5-carboxylic acid] | 21 | –
28 | O=C(O)c1ccc2c(c1)nc(-c1ccc(OCc3cc(Cl)ccc3-c3cccc(Cl)c3)cc1)n2C1CCCCC1 [Example 169, 2-{4-[3-chloro-6-(3-chlorophenyl)benzyloxy]phenyl}-1-cyclohexylbenzimidazole-5-carboxylic acid] | 150 | –
29 | CN(C)C(=O)c1ccc(C(Oc2ccc(-c3nc4cc(C(=O)O)ccc4n3C3CCCCC3)c(F)c2)c2ccc(C(=O)N(C)C)cc2)cc1 [Example 301] | 17 | –
30 | CC(C)(C)NC(=O)c1ccc(-c2ccc(Cl)cc2)c(COc2ccc(-c3nc4cc(C(=O)O)ccc4n3C3CCCCC3)c(F)c2)c1 [Example 379, 2-{4-[2-(4-chlorophenyl)-5-(tert-butylcarbamoyl)benzyloxy]-2-fluorophenyl}-1-cyclohexylbenzimidazole-5-carboxylic acid hydrochloride] | 21 | –
31 | O=C(O)c1ccc2c(c1)nc(-c1ccc(Oc3cccc(OCc4cccnc4)c3)cc1)n2C1CCCCC1 [Example 178, 1-cyclohexyl-2-{4-[3-(3-pyridylmethoxy)phenoxy]phenyl}-benzimidazole-5-carboxylic acid] | 52 | –
32 | CN(C)C(=O)c1ccc(C(Oc2ccc(-c3nc4cc(C(=O)O)ccc4n3C3CCCCC3)c(F)c2)c2ccc(F)cc2)cc1 (centres unmarked) [Example 326, 2-{4-[(4-fluorophenyl){4-(dimethylaminocarbonyl)phenyl}methoxy]-2-fluorophenyl}-1-cyclohexylbenzimidazole-5-carboxylic acid] | 18 | –
